Columns and labels:
Format in all cases: cell-based, human
adherent PBMNC [1] = assay: S100 immunohistochemistry of plastic adherent cells cultured with non-cytokine additives; conditions: for percentages of S100+ cells: day 7, additive added to GM-CSF 50 ng/ml
Method: Immunocytochemical staining: PBS (phosphate buffered saline) was made by dissolving 5 PBS tablets into 1000 ml millipore water. Cytospin slides were soaked in PBS. […] Slides were rinsed with PBS one time. Non-specific binding sites were blocked by incubating with normal serum matching source of secondary antibody (i.e. if secondary antibody is biotinylated goat-anti-mouse, used normal goat serum) at room temp. for 15 min. in a humidified environment. Excess serum was shaken from slides and placed 100 ul of primary antibody on slide, making sure cells are covered with liquid and incubated in humidified environment, room temp, for one hour. Negative control slides were incubated with normal serum for this hour. Slides were rinsed 3 times with PBS. Slides were incubated with biotinylated antibody reactive against the primary antibody (i.e. if primary antibody is mouse-anti-human, use a biotinylated goat-anti-mouse antibody) for 1 hour in humidity. Slides were rinsed 3 times with PBS. Slides were incubated with streptavidin-peroxidase, 2 drops/slide, for 30 min. in humidity. Slides were rinsed 3 times with PBS.
Chromagen solution was made with 5 ml millipore water+2 drops of chromagen buffer+1 drop of concentrated chromagen+1 drop of substrate, and 4-5 drops were added to each slide. […] Slides were counterstained with hematoxylin for about 5 min, or until cell nuclei were stained purple. Cells were rinsed with tap water and allowed to air dry. Slides were covered with crystal mount and oven dried at 80 degrees for 15 min. Slides were allowed to cool, then coversliped with mounting medium.
(§1) Enrichment and Culture of Adherent Cells Using Polystyrene Tissue Culture Plates: PBMNC were resuspended in culture media (X-VIVO 15™+10% autologous serum) at 2×10^6 cells/ml. Cells were placed into 48 well polystyrene tissue culture plates […] and incubated for 2 hours in a 5% CO2, ambient O2, 37° C. humidified incubator. Non-adherent cells were removed from the plates then wells were rinsed with X-VIVO 15™ containing no serum. Cells remaining in the wells were adherent cells. These cells were cultured by adding 2 ml of X-VIVO 15™ to each well plus GM-CSF and IL-4 at final concentrations of 50 ng/ml and 1000 U/ml or the following: cAMP at 0.5 mM, dibutyryl cAMP at 0.1 mM, NaF at 0.25 mM, theophylline at 0.5 mM, PGE at 0.1 mM, Vitamin D3 at 2.5 uM, Vitamin E at 0.1%, Retinoic Acid at 10^−6 M, PMA at 1 pM, Linoleic Acid at 5 ug/ml, or Ca^++ Ionophore at 10 mM. Furthermore, cells were also cultured with the above non-cytokine additives plus GM-CSF at 50 ng/ml. Cells were cultured in a 5% CO2, ambient O2, 37° C. humidified incubator for 7 days.
(§2) Cytospin slide preparation, Wright-Geimsa and immunohistochemical staining of the cultured cells were conducted as described in Example 1 and 2 above. Mixed lymphocyte reactions (MLR's) were setup using T cells (responders) and dendritic cell enriched cultures (stimulators) from bulk PBMNC cultures, as described above in Example 1.
(§3) Results: In the set of experiments using plastic adherent cells grown in polystyrene tissue culture plates, a Day 0 analysis of the cells was not performed. However, these cultures were analyzed for the presence of DC on days 4 and 7. Analysis perfomed were cell counts, viability via propidium iodide, morphology under Wright-Geimsa staining, and immunohistochemical staining using an anti-S100 antibody.

adherent PBMNC [2] = assay: Cell counts and viability of plastic adherent cells cultured with non-cytokine additives in polystyrene plates; design: % VIABLE: concentration or dose not given beside the values; conditions: for % VIABLE: propidium iodide
Method: Viability Determination: Prior to acquisition, 5 ul propidium iodide (PI) was added to each tube for use as a viability check. The cells were vortexed and acquired within 10 min of PI addition.
as §1, §3

adherent PBMNC [3] = assay: DC morphology (Wright-Geimsa) of plastic adherent cells cultured with non-cytokine additives
Method: Cytofunnels were attached to microscope slides. 50,000 to 100,000 cells were removed from each culture and resuspended in approximately 100 to 200 ul of PBS-CMF. Slides were placed in the Cytospin® centrifuge and spun at 100 rpm for 4 min. Cytofunnels were removed from the slides and the slides were air dried for 1 minute. Ten drops of Wright-Geimsa stain were placed onto each slide and allowed to fix for 1 to 2 minutes. Ten drops of water were added to each slide and allowed to sit for 2 to 4 minutes. The slides were rinsed and air dried.
Reading of Cytospin Slides: Slides were read under phase contrast microscopy, 40× and 60× oil magnification. One hundred cells were identified and characterized morphologically as either dendritic cells or non-dendritic cells (lymphocytes and monocyte, or CD34+-derived cells in those cases). Digital images were taken using a color monitor and color video printer.
as §1, §2, §3

| Molecule | % S100+ (adherent PBMNC [1]; Day 4, with GM-CSF present) [%] | % S100+ (adherent PBMNC [1]; Day 4, without GM-CSF) [%] | % S100+ (adherent PBMNC [1]; Day 7, with GM-CSF present) [%] | % S100+ (adherent PBMNC [1]; Day 7, without GM-CSF) [%] | TOTAL CELLS (adherent PBMNC [2]; Day 4, with GM-CSF present) [E + 05] | % VIABLE (adherent PBMNC [2]; Day 4, with GM-CSF present) [%] | TOTAL CELLS (adherent PBMNC [2]; Day 4, without GM-CSF) [E + 05] | % VIABLE (adherent PBMNC [2]; Day 4, without GM-CSF) [%] | TOTAL CELLS (adherent PBMNC [2]; Day 7, with GM-CSF present) [E + 05] | % VIABLE (adherent PBMNC [2]; Day 7, with GM-CSF present) [%] | TOTAL CELLS (adherent PBMNC [2]; Day 7, without GM-CSF) [E + 05] | % VIABLE (adherent PBMNC [2]; Day 7, without GM-CSF) [%] | % DC (adherent PBMNC [3]; Day 4, with GM-CSF present) [%] | % DC (adherent PBMNC [3]; Day 4, without GM-CSF) [%] | % DC (adherent PBMNC [3]; Day 7, with GM-CSF present) [%] | % DC (adherent PBMNC [3]; Day 7, without GM-CSF) [%] | percentages of S100+ cells (adherent PBMNC [1]) |
| --- | --- | --- | --- | --- | --- | --- | --- | --- | --- | --- | --- | --- | --- | --- | --- | --- | --- |
| CCCCC[C@H](O)/C=C/[C@H]1[C@H](O)CC(=O)[C@@H]1CCCCCCC(=O)O [PGE, Prostaglandin E1] | 6.00 | 0.00 | 26.50 | 5.00 | 2.35 | 92.40 | 2.54 | 71.62 | 1.84 | 60.29 | 2.91 | 59.78 | 5.00 | 3.00 | 5.50 | 0.00 |  |
| Cc1c(C)c2c(c(C)c1O)CCC(C)(CCCC(C)CCCC(C)CCCC(C)C)O2 (mixture of isomers) [Vit E] | 26.00 | 19.00 | 19.00 | 11.00 | 1.38 | 97.48 | 1.64 | 78.65 | 1.05 | 94.21 | 1.75 | 71.91 | 4.50 | 2.50 | 6.00 | 3.00 |  |
| CCCCCCCCCCCCCC(=O)O[C@@H]1[C@@H](C)[C@@]2(O)[C@@H](C=C(CO)C[C@]3(O)C(=O)C(C)=C[C@@H]23)[C@@H]2C(C)(C)[C@]12OC(C)=O [PMA, Phorbol Myristate Acetate] | 20.00 | 4.00 | 26.50 | 6.50 | 1.45 | 97.60 | 1.64 | 77.17 | 1.04 | 95.15 | 1.51 | 82.20 | 4.50 | 1.00 | 0.00 | 1.00 |  |
| [F-].[Na+] [NaF, Sodium Fluoride] | 7.00 | 0.00 | 5.00 | 2.50 | 1.90 | 67.04 | 2.19 | 72.46 | 1.44 | 30.61 | 2.18 | 44.31 | 0.00 | 0.00 | 0.00 | 0.00 |  |
| CCCC(=O)Nc1ncnc2c1ncn2[C@@H]1O[C@@H]2COP(=O)(O)O[C@H]2[C@H]1OC(=O)CCC [dibutyryl cAMP, Dibutyryl cAMP] | 17.00 | 6.00 | 14.00 | 8.00 | 1.74 | 85.86 | 2.18 | 71.00 | 1.37 | 61.25 | 2.59 | 58.87 | 2.50 | 0.00 | 2.50 | 0.00 |  |
| Cn1c(=O)c2[nH]cnc2n(C)c1=O [theophylline, Theophylline] | 8.50 | 6.00 | 11.00 | 7.50 | 1.34 | 88.75 | 2.12 | 75.27 | 9.65 | 59.55 | 1.81 | 56.49 | 6.50 | 0.50 | 3.50 | 0.00 |  |
| Nc1ncnc2c1ncn2[C@@H]1O[C@@H]2COP(=O)(O)O[C@H]2[C@H]1O [cAMP, Cyclic Adenosine Monophosphate] | 41.00 | 10.50 | 47.00 | 10.00 | 2.02 | 87.60 | 1.86 | 76.37 | 1.56 | 60.51 | 2.08 | 19.89 | 3.00 | 0.00 | 0.00 | 0.50 | greatest percentages of S100+ cells |
| C=C1CCC(O)CC1=CC=C1CCCC2(C)C1CCC2C(C)CCCC(C)C (stereo not drawn) [Vit D3] | 8.00 | 5.50 | 39.00 | 16.00 | 1.95 | 95.86 | 2.37 | 76.06 | 1.64 | 67.44 | 1.82 | 75.13 | 3.00 | 1.50 | 5.00 | 0.50 |  |
| CC1=C(/C=C/C(C)=C/C=C/C(C)=C/C(=O)O)C(C)(C)CCC1 [Ret Acid] | 9.00 | 7.00 | 14.00 | 7.00 | 1.21 | 95.30 | 1.48 | 60.67 |  | 88.52 | 1.66 | 45.17 | 1.50 | 10.00 | 4.00 | 0.00 |  |
| CNc1ccc2oc(CC3OC4(CCC3C)OC(C(C)C(=O)c3ccc[nH]3)C(C)CC4C)nc2c1C(=O)O (stereo not drawn) [Ca + + Iono] | 20.00 |  |  | 29.00 | 1.66 | 96.23 |  |  |  |  | 1.54 | 84.02 | 9.50 |  |  | 6.00 |  |
| IL-4: interleukin-4, Genzyme; added to GM-CSF (protein, UniProt P05112 25-153, looked up) Interleukin-4: HKCDITLQEIIKTLNSLTEQKTLCTELTVTDIFAASKNTTEKETFCRAATVLRQFYSHHEKDTRCLGATAQQFHRHKQLIRFLKRLDRNLWGLAGLNSCPVKEANQSTLENFLERLKTIMREKYSKCSS |  |  |  |  |  |  |  |  |  |  |  |  |  |  |  |  | greatest percentages of S100+ cells |

Source: patent publication US6458585B1, “Cytokine-free culture of dendritic cells” (Nexell Therapeutics Inc., priority 1996, dated 2002)
